# Experimental data: patent US20240180895A1, “USE OF KAPPA OPIOID RECEPTOR AGONISTS TO TREAT CARDIOVASCULAR DISEASE” (Board of Supervisors of Louisiana State University and …, priority 2021, published 2024)
# Key:
# [1] = tested on: conscious Sprague-Dawley rats; assay: Metabolic cage renal excretory studies, oral gavage (Example 3); format: in vivo, rat
# Protocol: Animals: Male Sprague-Dawley (SD) rats (Envigo Labs, Indianapolis, IN), 300-350 g, were individually housed under a 12 h light-dark cycle and allowed tap water and standard rodent diet ad libitum. Rats were randomly assigned to experimental groups for all acute and subacute studies. All procedures were approved by the Louisiana State University Health Sciences Center Institutional Animal Care and Use Committee and conducted in accordance with the National Institutes of Health guidelines for the care and use of animals.
# Metabolic Cage Renal Excretory Studies: Rats were placed in metabolic cages (model 18cv, Fenco, Cataumet, MA) for 2 hours to allow for acclimation and voiding of residual urine. Following the acclimation period, rats were volume loaded with 20 cc kg^−1 drug or vehicle (isotonic saline) via oral gavage. Urines were collected each hour over a 5-hour period. Following completion of the study rats were returned to their home cages. […] These points are marked on the figures with number of measurements in parentheses.
# Experimental Design and Analysis: All results are expressed as mean±SEM. […] Means between groups for total urine output, Na^+ concentration, K^+ concentration, and urine osmolality were compared using a Student's t-test. Statistical significance was characterized as P<0.05. Statistics were carried out using Prism 7.05 software (GraphPad Software, Inc., San Diego, CA) and IBM SPSS Statistics (IBM, Armonk, NY).
# Sprague-Dawley rats [2] = assay: Prevention of diuretic resistance to twice daily furosemide by nalfurafine, 5-hour urine (FIG. 15); format: in vivo, rat; settings: nalfurafine 10 μg/kg IP added to furosemide 20 mg/kg twice daily
# Protocol: (§1) Male Sprague-Dawley rats were placed in individual metabolic cages in a room with 12-hour automatic light on/off control and allowed tap water and rodent chow ad libitum. Over the next two (2) days (control period), rats were administered vehicle (5% NaOH; 1 M PBS, IP) in the morning (9:00 am) and afternoon (2:00 pm) of each day, with urine collected for 5-hours starting immediately after the first injection. […] This was repeated for 4 consecutive days (experimental period).
# Sprague-Dawley rats [3] = assay: Reversal of oral furosemide diuretic resistance by oral nalfurafine (FIG. 17); format: in vivo, rat; settings: nalfurafine 150 μg/kg oral added from day 7
# Protocol: as §1, with “PBS) orally (gavage)” for “PBS, IP)”, “and” for “of each day, with”, “urine was” for “urine”, “5-hours” for “5-hours starting immediately”, “oral treatment.” for “injection.”, “8” for “4”
# [4] = tested on: spontaneously hypertensive rats; assay: Chronic oral nalfurafine, radiotelemetry blood pressure (FIG. 18); format: in vivo, rat; settings: nalfurafine 0.5 mg/kg oral once per day for 5 weeks
# Protocol: (§2) Male spontaneously hypertensive rats (SHR; Charles Rivers) were single housed and allowed tap water and standard rodent diet ad libitum. All procedures and experiments were conducted in accordance with the National Institutes of Health guidelines for the care and use of animals.
# (§3) Radiotelemetry transmitters (Data Sciences International, St. Paul, MN) were implanted into SHR for chronic recording of blood pressure and heart rate and followed as previously published.^56 Briefly, rats were anesthetized and maintained on 2% isoflurane and the right femoral artery was surgically exposed. The transmitter catheter was inserted into the femoral artery and advanced until reaching the abdominal aorta. The site exposing the femoral artery was sutured and rats were allowed 1 week of recovery. Telemetry data was analyzed using Ponemah software (DSI, St. Paul, MN).
# Spontaneously hypertensive rats were orally administered (gavage) nalfurafine (0.5 mg/kg) or vehicle (water) once per day for 5 weeks following recovery from radiotelemetry transmitter insertion. Blood pressure was recorded once per week and the 12:00-14:00 time frame was plotted.
# (§4) All results are expressed as mean±SEM. Statistically different changes for both experimental protocols were determined using 2-way ANOVA with repeated measures and were considered statistically different following a significant/value for an interaction between experimental group and time. Statistical significance was determined as P<0.05, and statistics were performed on Prism 7.05 software (GraphPad Software, Inc, San Diego, CA).
# [5] = tested on: spontaneously hypertensive rats; assay: Chronic subcutaneous infusion of nalfurafine, radiotelemetry blood pressure (FIG. 19); format: in vivo, rat
# Protocol: as §2, §3
# In a separate cohort, spontaneously hypertensive rats were administered a subcutaneous nalfurafine infusion (0.3 mg/day) or vehicle (isotonic saline) using an osmotic pump (2ML4; Alzet) for 4 weeks. For the insertion of the osmotic pumps, rats were anesthetized and maintained under 2% isoflurane, a small incision was made at the nape, and the osmotic pump was inserted between the scapulae. The incision was sutured, and rats were returned to their home cages. Blood pressure was recorded throughout the entirety of the experiment and the 20:00-22:00 time frame was plotted.
# as §4
# [6] = in rats; cited from earlier work
# hemodialysis patients = settings: nearly 4000 hemodialysis patients (Kozono, Yoshitani, et al., 2018); cited from earlier work
# [7] = oral gavage, cumulative 5-hour urine, same doses, mean±SEM
# [8] = subcutaneous infusion 0.3 mg/day, 30 days
smiles,measurement,setting,value
"CN(C(=O)/C=C/c1ccoc1)[C@@H]1CC[C@@]2(O)[C@H]3Cc4ccc(O)c5c4[C@@]2(CCN3CC2CC2)[C@H]1O5 [nalfurafine, Nalfurafine]",Time of peak diuresis,[1]; after oral gavage 150 μg kg−1,2 h
same,Potassium concentration [K+] in cumulative urine,[1]; [7],14.55±1.46 μeq ml^−1
same,Sodium concentration [Na+] in cumulative urine,[1]; [7],16.92±1.45 μeq ml^−1
same,Total urine output,"[1]; oral gavage, cumulative urine of 5-hour protocol, nalfurafine 150 μg kg−1, furosemide 50 mg kg−1, HCTZ 5 mg kg−1, amiloride 5 mg kg−1, mean±SEM, n=6",14.55 ± 0.57 mL
same,Effect on diuretic resistance to furosemide,Sprague-Dawley rats [2],prevents the diuretic resistance
same,Effect on established diuretic resistance to furosemide,Sprague-Dawley rats [3],able to treat or rescue the diuretic resistance
same,Diastolic blood pressure and heart rate vs vehicle,[4],no significant interaction between treatment over time for diastolic blood pressure or heart rate
same,Mean arterial pressure vs vehicle,[4]; 12:00-14:00 time frame,significantly lower mean arterial pressure at the 3-week time point
same,Systolic blood pressure vs vehicle,[4]; 12:00-14:00 time frame,"significantly lower in the nalfurafine group compared to vehicle at 3, 4, and 5 weeks"
same,"Decrease in systolic, diastolic, and mean arterial pressure","[5]; 1 day of subcutaneous nalfurafine infusion 0.3 mg/day, 20:00-22:00 time frame",~20 mmHg
same,Heart rate vs vehicle,[5]; [8],"significantly lower heart rate than the vehicle treated group on day 9, day 16-22, and day 25-30"
same,"Systolic, diastolic, mean arterial pressure and heart rate over time",[5]; [8],did not demonstrate an increase in these parameters
same,Half-life,[6],~6 h
same,Dysphoric adverse effects,hemodialysis patients,did not cause the typical dysphoric adverse effects
